Measurements as given in ChEMBL document CHEMBL1201862, “PubChem BioAssay data set” (2004).
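Compound exposure: 48 hours, 5 concentrations, 96-well plates. GI50 is the concentration that inhibits growth by half.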 Activity calls are given as the source filed them. Rule as the data show it: active = GI50 up to about 1.1 µM and inactive = higher.

Experiments:
Test in all cases: inhibition of tumour cell growth, NCI panel, 48 h
[1] = test system: 786-0
[2] = test system: A498
[3] = test system: A549
[4] = test system: ACHN
[5] = test system: BT-549
[6] = test system: CAKI-1
[7] = test system: CCRF-CEM
[8] = test system: COLO 205
[9] = test system: DU-145
[10] = test system: EKVX
[11] = test system: HCC 2998
[12] = test system: HCT-116
[13] = test system: HCT-15
[14] = test system: HOP-62
[15] = test system: HOP-92
[16] = test system: HT-29
[17] = test system: Hs-578T
[18] = test system: IGROV-1
[19] = test system: K562
[20] = test system: KM12
[21] = test system: LOX IMVI
[22] = test system: M14
[23] = test system: MCF7
[24] = test system: MDA-MB-231
[25] = test system: MDA-MB-435
[26] = test system: MDA-N
[27] = test system: MOLT-4
[28] = test system: Malme-3M
[29] = test system: NCI-H226
[30] = test system: NCI-H23
[31] = test system: NCI-H460
[32] = test system: NCI-H522
[33] = test system: NCI/ADR-RES
[34] = test system: OVCAR-3
[35] = test system: OVCAR-4
[36] = test system: OVCAR-5
[37] = test system: OVCAR-8
[38] = test system: PC-3
[39] = test system: RPMI-8226
[40] = test system: RXF 393
[41] = test system: SF-268
[42] = test system: SF-295
[43] = test system: SF-539
[44] = test system: SK-MEL-28
[45] = test system: SK-MEL-2
[46] = test system: SK-MEL-5
[47] = test system: SK-OV-3
[48] = test system: SN12C
[49] = test system: SNB-19
[50] = test system: SNB-75
[51] = test system: SW-620
[52] = test system: T47D
[53] = test system: TK-10
[54] = test system: U-251
[55] = test system: UACC-257
[56] = test system: UO-31
[57] = test system: HL-60
[58] = test system: UACC-62

## Oc1c(CN2CCOCC2)ccc2cccnc12
[1]
  GI50: > 10 µM (inactive)
[2]
  GI50: > 10 µM (inactive)
[3]
  GI50: > 10 µM (inactive)
[4]
  GI50: > 10 µM (inactive)
[5]
  GI50: 1.51 µM (inactive)
[6]
  GI50: 5.16 µM (inactive)
[7]
  GI50: 2.54 µM (inactive)
[8]
  GI50: > 10 µM (inactive)
[9]
  GI50: > 10 µM (inactive)
[10]
  GI50: > 10 µM (inactive)
[11]
  GI50: > 10 µM (inactive)
[12]
  GI50: 6.55 µM (inactive)
[13]
  GI50: 4.59 µM
[14]
  GI50: > 10 µM (inactive)
[15]
  GI50: > 10 µM (inactive)
[16]
  GI50: > 10 µM (inactive)
[17]
  GI50: > 10 µM (inactive)
[18]
  GI50: > 10 µM (inactive)
[19]
  GI50: 4.4 µM (inactive)
[20]
  GI50: > 10 µM (inactive)
[21]
  GI50: > 10 µM (inactive)
[22]
  GI50: > 10 µM (inactive)
[23]
  GI50: 4.14 µM (inactive)
[24]
  GI50: > 10 µM (inactive)
[25]
  GI50: > 10 µM (inactive)
[26]
  GI50: > 10 µM (inactive)
[27]
  GI50: 4.11 µM (inactive)
[28]
  GI50: > 10 µM (inactive)
[29]
  GI50: > 10 µM (inactive)
[30]
  GI50: > 10 µM (inactive)
[31]
  GI50: 4.63 µM (inactive)
[32]
  GI50: 2.62 µM (inactive)
[33]
  GI50: 2.34 µM (inactive)
[34]
  GI50: > 10 µM (inactive)
[35]
  GI50: > 10 µM (inactive)
[36]
  GI50: > 10 µM (inactive)
[37]
  GI50: > 10 µM (inactive)
[38]
  GI50: > 10 µM (inactive)
[39]
  GI50: > 10 µM (inactive)
[40]
  GI50: > 10 µM (inactive)
[41]
  GI50: > 10 µM (inactive)
[42]
  GI50: > 10 µM (inactive)
[43]
  GI50: > 10 µM (inactive)
[44]
  GI50: > 10 µM (inactive)
[45]
  GI50: > 10 µM (inactive)
[46]
  GI50: > 10 µM (inactive)
[47]
  GI50: > 10 µM (inactive)
[48]
  GI50: > 10 µM (inactive)
[49]
  GI50: > 10 µM (inactive)
[50]
  GI50: > 10 µM (inactive)
[51]
  GI50: > 10 µM (inactive)
[52]
  GI50: 7.41 µM (inactive)
[53]
  GI50: > 10 µM (inactive)
[54]
  GI50: > 10 µM (inactive)
[55]
  GI50: > 10 µM (inactive)
[56]
  GI50: 8.38 µM (inactive)

## CC(C)(CN1CCCCC1)C(/C=C/c1ccc(Cl)c(Cl)c1)=N\NC(=O)N/N=C(/C=C/c1ccc(Cl)c(Cl)c1)C(C)(C)CN1CCCCC1
[1]
  GI50: 1.48 µM (inactive)
[2]
  GI50: 1.72 µM (inactive)
[3]
  GI50: 1.86 µM (inactive)
[4]
  GI50: 1.89 µM (inactive)
[5]
  GI50: > 10 µM (inactive)
[6]
  GI50: 1.71 µM (inactive)
[7]
  GI50: 1.76 µM (inactive)
[8]
  GI50: 1.64 µM (inactive)
[9]
  GI50: 1.85 µM (inactive)
[10]
  GI50: 1.64 µM (inactive)
[11]
  GI50: 1.69 µM (inactive)
[12]
  GI50: 0.908 µM (active)
[13]
  GI50: 1.08 µM
[57]
  GI50: 1.52 µM (inactive)
[14]
  GI50: 1.87 µM (inactive)
[16]
  GI50: 0.361 µM (active)
[17]
  GI50: 1.81 µM (inactive)
[18]
  GI50: 1.77 µM (inactive)
[19]
  GI50: 0.325 µM (active)
[20]
  GI50: 1.63 µM (inactive)
[21]
  GI50: 1.12 µM (inactive)
[22]
  GI50: 0.385 µM (active)
[23]
  GI50: 1.54 µM (inactive)
[24]
  GI50: 2.06 µM (inactive)
[25]
  GI50: 1.31 µM (inactive)
[26]
  GI50: 1.42 µM (inactive)
[27]
  GI50: 2.62 µM (inactive)
[28]
  GI50: 1.55 µM (inactive)
[29]
  GI50: 2.3 µM (inactive)
[30]
  GI50: 1.93 µM (inactive)
[31]
  GI50: 1.35 µM (inactive)
[32]
  GI50: 1.82 µM (inactive)
[33]
  GI50: 1.73 µM (inactive)
[34]
  GI50: 1.56 µM (inactive)
[35]
  GI50: 1.71 µM (inactive)
[36]
  GI50: 1.59 µM (inactive)
[37]
  GI50: 1.87 µM (inactive)
[38]
  GI50: > 10 µM (inactive)
[39]
  GI50: 1.42 µM (inactive)
[40]
  GI50: 0.659 µM (active)
[41]
  GI50: 1.57 µM (inactive)
[42]
  GI50: 1.71 µM (inactive)
[43]
  GI50: 1.77 µM (inactive)
[44]
  GI50: 1.72 µM (inactive)
[45]
  GI50: > 10 µM (inactive)
[46]
  GI50: 1.99 µM (inactive)
[47]
  GI50: 1.92 µM (inactive)
[48]
  GI50: 1.77 µM (inactive)
[49]
  GI50: 1.69 µM (inactive)
[50]
  GI50: 1.55 µM (inactive)
[51]
  GI50: 1.62 µM (inactive)
[52]
  GI50: 2.05 µM (inactive)
[53]
  GI50: 1.66 µM (inactive)
[54]
  GI50: 1.69 µM (inactive)
[55]
  GI50: 1.63 µM (inactive)
[58]
  GI50: 1.95 µM (inactive)
[56]
  GI50: 4.14 µM (inactive)

## O=Cc1cccc2ccc3ccccc3c12
[1]
  GI50: 17.5 µM (inactive)
[2]
  GI50: 22.4 µM (inactive)
[3]
  GI50: 24.3 µM (inactive)
[4]
  GI50: 13.5 µM (inactive)
[5]
  GI50: 30.5 µM (inactive)
[6]
  GI50: 16.1 µM (inactive)
[8]
  GI50: 18.7 µM (inactive)
[9]
  GI50: 22.4 µM (inactive)
[11]
  GI50: 26.2 µM (inactive)
[12]
  GI50: 9.18 µM (inactive)
[13]
  GI50: 11.1 µM
[14]
  GI50: 15.9 µM (inactive)
[16]
  GI50: 12.2 µM (inactive)
[17]
  GI50: 13.5 µM (inactive)
[20]
  GI50: 4.02 µM (inactive)
[21]
  GI50: 11.3 µM (inactive)
[22]
  GI50: 20 µM (inactive)
[23]
  GI50: 14.4 µM (inactive)
[24]
  GI50: 17 µM (inactive)
[25]
  GI50: 18.4 µM (inactive)
[26]
  GI50: 21.6 µM (inactive)
[28]
  GI50: 16.4 µM (inactive)
[29]
  GI50: 24.7 µM (inactive)
[30]
  GI50: 25.1 µM (inactive)
[31]
  GI50: 21.4 µM (inactive)
[32]
  GI50: 13.8 µM (inactive)
[33]
  GI50: 8.45 µM (inactive)
[34]
  GI50: 12.9 µM (inactive)
[37]
  GI50: 24.2 µM (inactive)
[38]
  GI50: 9.59 µM (inactive)
[40]
  GI50: 16.3 µM (inactive)
[41]
  GI50: 11.5 µM (inactive)
[42]
  GI50: 17.1 µM (inactive)
[43]
  GI50: 5.86 µM (inactive)
[45]
  GI50: 15.1 µM (inactive)
[46]
  GI50: 16.9 µM (inactive)
[47]
  GI50: 16.5 µM (inactive)
[48]
  GI50: 20.5 µM (inactive)
[49]
  GI50: 7.8 µM (inactive)
[50]
  GI50: 7.35 µM (inactive)
[51]
  GI50: 10.4 µM (inactive)
[52]
  GI50: 15 µM (inactive)
[53]
  GI50: 14.3 µM (inactive)
[54]
  GI50: 5.93 µM (inactive)
[55]
  GI50: 32 µM (inactive)
[58]
  GI50: 28.1 µM (inactive)
[56]
  GI50: 24 µM (inactive)
